Earlier results as cited in patent publication US10138195B2, “Organic compounds” (Givaudan, S. A., priority 2014, dated 2018).
Read-outs that look alike come from different tables or passages of the source.

What was measured:
[1] = test system: guinea-pigs
[2] = rats
[3] = test system: primates
[4] = dogs
[5] = test system: reproductive organs of male dogs
[6] = test system: reproductive organs of male rats
[7] = test system: mice
[8] = test system: male rats; settings: male rats (Hunter et al.; Cagen et al.)
[9] = test system: glucose synthesis and fatty acid synthesis; settings: in vitro (McCune et al)

Row | Structure (SMILES) | Effects in studies [1] | Enzymatic degradation product [2] | Effects in studies [3] | Enzymatic degradation product [4] | Effects on the reproductive organs [5] | Effects on the reproductive organs [6] | Effects in studies [7] | Testicular effects [8] | Effect on glucose synthesis and fatty acid synthesis [9]
1 | CC(C=O)Cc1ccc(C(C)(C)C)cc1 (stereo not drawn) [Lilial™, 3-(4-tert-butylphenyl)-2-methylpropanal] | No effects | enzymatically degraded in rats and dogs to tert-butyl benzoic acid (t-BBA) | No effects | enzymatically degraded in rats and dogs to tert-butyl benzoic acid (t-BBA) | toxic effects on the reproductive organs | toxic effects on the reproductive organs | No effects |  | 
2 | CC(C)(C)c1ccc(C(=O)O)cc1 [tert-butyl benzoic acid] |  |  |  |  |  |  |  | cause testicular effects | inhibit glucose synthesis and fatty acid synthesis
